Measurements taken from BigSolDB 2.1.

CC(C)[C@H](C)[C@@H](O)[C@H](O)[C@@H](C)[C@H]1CC[C@H]2[C@@H]3COC(=O)[C@H]4C[C@H](O)[C@H](O)C[C@]4(C)[C@H]3CC[C@]12C
solubility (mole fraction)
Settings	278.15 K	283.15 K	288.15 K	293.15 K	298.15 K	303.15 K	308.15 K	313.15 K	318.15 K	323.15 K
in THF	0.16	0.185	0.21	0.239	0.269	0.297	0.328	0.361	0.395	0.43
in acetone	0.09	0.106	0.124	0.145	0.166	0.188	0.213	0.239	0.267	0.296
in acetonitrile	0.00057	0.00067	0.00078	0.0009	0.00103	0.00118	0.00133	0.00149	0.00167	0.00186
in chloroform	0.00083	0.00095	0.00109	0.00125	0.00142	0.0016	0.00181	0.00204	0.00229	0.00256
in isopropanol	0.00031	0.00036	0.00041	0.00047	0.00054	0.00062	0.0007	0.0008	0.00091	0.00104
in methanol	0.0321	0.0377	0.0442	0.0511	0.0588	0.0675	0.077	0.0875	0.099	0.112
in n-butanol	0.00046	0.00054	0.00062	0.00071	0.00082	0.00093	0.00106	0.00121	0.00137	0.00155
in n-heptane	7e-05	0.0001	0.00014	0.00018	0.00022	0.00028	0.00033	0.00039	0.00046	0.00052
in n-hexane	9e-05	0.00012	0.00016	0.0002	0.00025	0.00031	0.00037	0.00044	0.00051	0.00059
